Experimental data as given in patent US11951098B2, “Therapeutic agent for meibomian dysfunction” (SANTEN PHARMACEUTICAL CO., LTD., priority 2013, dated 2024).

Experiments:
[1] = tested on: HR-AD feed fed Hos: HR-1 series hairless mouse; assay: Test using HR-AD feed fed hairless mouse; assay type: in vivo, Hos: HR-1 series hairless mice; conditions: for Number of obstructive orifices: among eight orifices at centre of upper eyelid
Protocol: It has been known that a HR-AD feed is fed to Hos: HR-1 series hairless mouse, obstruction of the meibomian gland orifices similar to the signs/findings of MGD could be recognized (Japanese Patent Application No. 2012-137778). Thus, effects of sirolimus and deforolimus which are representative examples of the present compounds on the obstruction were investigated.
0.1% (w/v) sirolimus suspension: it was prepared by suspending in 0.01% (w/v) hydroxypropylmethyl cellulose.
0.1% (w/v) deforolimus suspension: it was prepared by suspending in 0.01% (w/v) hydroxypropylmethyl cellulose. Incidentally, deforolimus used in the present test was prepared according to the method described in JP 2005-516065A.
Six-weeks old male Hos: HR-1 series hairless mice were grouped into 5 mice of a normal feed fed group (CRF-1 feed, available from Oriental Yeast Co., Ltd.) and 15 mice of a HR-AD feed fed group (available from Nosan Corporation), and fed the normal feed or the HR-AD feed, respectively, which were spontaneously taken. After 28th day from initiation of the feeding, the meibomian gland orifices were observed by using a slit lamp, and a number of obstructive orifices among the eight meibomian gland orifices at the center of the upper eyelid was measured. Incidentally, the presence or absence of obstruction of the meibomian gland orifices was judged by the state whether the meibomian gland orifices were in a turbid and raised or not (see JP 2014-023526A).
Fifteen mice of the HR-AD feed fed group were grouped into a physiological saline solution-administered group, a 0.1% sirolimus suspension-administered group and a 0.1% deforolimus suspension-administered group (5 mice in each group), and from 29th day from initiation of the feeding, the physiological saline solution (2 μL/eye, twice a day), the 0.1% sirolimus suspension (2 μL/eye, twice a day) or the 0.1% (w/v) deforolimus suspension (2 μL/eye, twice a day) were dropped to the eye for 28 days. At 42nd day and 56th day after initiation of the feeding, a number of obstructions of the meibomian gland orifices was measured by using a slit lamp.

[2] = tested on: complete Freund's adjuvant administered rabbit; assay: Test using complete Freund's adjuvant administered rabbit; assay type: in vivo, Japanese white rabbits; conditions: average; for Score of telangiectasia: right upper eyelid, sum of three fractions
Protocol: In a complete Freund's adjuvant administered rabbit, telangiectasia around the meibomian gland orifices, and obstruction at the meibomian gland orifices, which are similar to the signs/findings of MGD can be recognized. Effects of sirolimus which was a representative example of the present compound on the telangiectasia and obstruction were investigated (see JP 2014-024835A).
0.1% (w/v) sirolimus suspension: it was prepared by suspending in 0.01% (w/v) hydroxypropylmethyl cellulose. Incidentally, with regard to sirolimus, that purchased from LKT Laboratories, Inc., (Catalog number: R0161) was used (which is the same in the following Examples).
10 μL of the complete Freund's adjuvant was administered to the right upper eyelid (3 portions) of about 2 kg of male Japanese white rabbits, respectively. After 4 days from provocation, around the meibomian gland orifices of the right upper eyelid was observed by using slit lamp, a score of telangiectasia and a score of obstruction at the meibomian gland orifices were judged.
Incidentally, with regard to the score of telangiectasia, in accordance with the criteria in the following Tables 1 and 2, the eyelid margin of the upper eyelid was equally divided to three fractions of the ear side, the center portion and the nose side, the score of telangiectasia around the meibomian gland orifices was judged with regard to the respective fractions, and the sum of the scores of the three fractions was calculated as a score per one eye. Here, the presence or absence of dilation of the capillaries was judged by the state whether the capillaries which cannot be usually recognized with naked eyes can be recognized or not as a result of dilation of the diameter of the blood vessel. Also, the presence or absence of obstruction of the meibomian gland orifices was judged by the state whether the meibomian gland orifices are in a turbid or not.
The rabbits were grouped into a physiological saline solution-administered group and a 0.1% sirolimus suspension-administered group, and tested with 7 or 8 eyes in each group so that fluctuation of the average value of the respective scores became small. After 5th day from provocation, a physiological saline solution (50 μL/eye, twice a day) or a 0.1% sirolimus suspension (50 μL/eye, twice a day) was dropped into the right eye for 10 days. After 11th and 15th days from provocation, around the meibomian gland orifices of the right upper eyelid was observed by using a slit lamp, whereby the score of telangiectasia was judged and the number of the obstructive orifices was measured.

[3] = 42nd day after initiation of the feeding, 0.1% (w/v) suspension 2 μL/eye twice a day from 29th day
[4] = 56th day after initiation of the feeding, 0.1% (w/v) suspension 2 μL/eye twice a day for 28 days
[5] = 11th day after provocation, 0.1% (w/v) suspension 50 μL/eye twice a day from 5th day
[6] = 15th day after provocation, 0.1% (w/v) suspension 50 μL/eye twice a day for 10 days

Row | SMILES | Effect on number of the obstructions of the meibomian gland orifices (in words) ([1]; 0.1% suspension instilled, versus physiological saline group) | Number of obstructive orifices [1, 3] | Number of obstructive orifices [1, 4] | Score of obstruction of orifices [2, 5] | Score of telangiectasia [2, 5] | Score of obstruction of orifices [2, 6] | Score of telangiectasia [2, 6]
1 | CO[C@H]1C[C@@H]2CC[C@@H](C)[C@@](O)(O2)C(=O)C(=O)N2CCCC[C@H]2C(=O)O[C@H]([C@H](C)C[C@@H]2CC[C@@H](OP(C)(C)=O)[C@H](OC)C2)CC(=O)[C@H](C)/C=C(\C)[C@@H](O)[C@@H](OC)C(=O)[C@H](C)C[C@H](C)/C=C/C=C/C=C/1C [0.1% Deforolimus suspension, deforolimus] | decreased | 2.7 | 2.2 |  |  |  | 
2 | CO[C@H]1C[C@@H]2CC[C@@H](C)[C@@](O)(O2)C(=O)C(=O)N2CCCC[C@H]2C(=O)O[C@H]([C@H](C)C[C@@H]2CC[C@@H](O)[C@H](OC)C2)CC(=O)[C@H](C)/C=C(\C)[C@@H](O)[C@@H](OC)C(=O)[C@H](C)C[C@H](C)/C=C/C=C/C=C/1C [0.1% Sirolimus suspension, sirolimus] |  | 0.7 | 0.0 | 2.3 | 2.1 | 1.3 | 2.1
